Laboratory results from article PMC3950855 (British Journal of Cancer, 2014).
Where “and” joins values, the source holds several entries; their conditions need not be identical. Equal values may be shown once.

Columns and labels:
[1] = Phase I trial safety: adverse events; format: in vivo, human
[2] = tested on: histone H3 acetylation in PBMNC; assay: Acetylation of histone H3 in PBMNC of study patients; format: in vivo, human; details: dose level 1, three patients
[3] = tested on: PBMNC; format: cell-based, human; details: ex vivo incubation for 8 h
[4] = tested on: GIST-T1 (exon 11-mutant) cells; assay: GIST-T1 cells immunoblot; format: cell-based
[5] = tested on: CYP2D6; details: ref Hamberg et al, 2011; Filppula et al, 2012; cited from earlier work
[6] = 20 mg thrice weekly; ref Fukutomi et al (2012); cited from earlier work
[7] = Plasma pharmacokinetics by LC/PDA; details: human, in vivo, im, Panobinostat Cmax (mean), 20 mg
[8] = both dose levels + IM 400 mg, 12 patients
[9] = panobinostat + IM 400 mg, 12 patients
[10] = Pan 50 nm for 8 h, then withdrawal

Cc1[nH]c2ccccc2c1CCNCc1ccc(/C=C/C(=O)NO)cc1 [panobinostat, Panobinostat]
Anaemia, % of patients [1, 8]: 42% and 41.7% | Anaemia, No. of patients Total [1, 8]: 5 | Chills, % of patients [1, 8]: 16.7% | Chills, No. of patients Total [1, 8]: 2 | Constipation, % of patients [1, 8]: 16.7% | Constipation, No. of patients Total [1, 8]: 2 | Creatinine, % of patients [1, 8]: 58% and 58.3% | Creatinine, No. of patients Total [1, 8]: 7 | Diarrhoea, % of patients [1, 8]: 42% and 41.7% | Diarrhoea, No. of patients Total [1, 8]: 5 | Dizziness, % of patients [1, 8]: 25.0% | Dizziness, No. of patients Total [1, 8]: 3 | Dry mouth, % of patients [1, 8]: 16.7% | Dry mouth, No. of patients Total [1, 8]: 2 | Dry skin, % of patients [1, 8]: 16.7% | Dry skin, No. of patients Total [1, 8]: 2 | Dysgeusia, % of patients [1, 8]: 16.7% | Dysgeusia, No. of patients Total [1, 8]: 2 | Dyspepsia, % of patients [1, 8]: 25.0% | Dyspepsia, No. of patients Total [1, 8]: 3 | Fatigue, % of patients [1, 8]: 67% and 66.7% | Fatigue, No. of patients Total [1, 8]: 8 | Headache, % of patients [1, 8]: 16.7% | Headache, No. of patients Total [1, 8]: 2 | Hypothyroidism, % of patients [1, 8]: 25.0% | Hypothyroidism, No. of patients Total [1, 8]: 3 | Lymphopenia, % of patients [1, 8]: 16.7% | Lymphopenia, No. of patients Total [1, 8]: 2 | Muscle spasms, % of patients [1, 8]: 25.0% | Muscle spasms, No. of patients Total [1, 8]: 3 | Nausea, % of patients [1, 8]: 50% | Nausea, No. of patients Total [1, 8]: 6 | Neutropenia, % of patients [1, 8]: 16.7% | Neutropenia, No. of patients Total [1, 8]: 2 | Oedema, % of patients [1, 8]: 25.0% | Oedema, No. of patients Total [1, 8]: 3 | Thrombocytopenia, % of patients [1, 8]: 91.7% | Thrombocytopenia, No. of patients Total [1, 8]: 11 | Vomiting, % of patients [1, 8]: 33% and 33.3% | Vomiting, No. of patients Total [1, 8]: 4 | Weight loss, % of patients [1, 8]: 25.0% | Weight loss, No. of patients Total [1, 8]: 3 | MTD (dose level) ([1]; dose level 1 = panobinostat 20 mg + IM 400 mg): dose level 1 | dose-limiting toxicity ([1]; dose level 2 (30 mg panobinostat and 400 mg IM)): severe thrombocytopenia | Anaemia, No. of patients Grade 2 ([1]; panobinostat 20 mg + IM 400 mg): 3 | Anaemia, No. of patients Total ([1]; panobinostat 20 mg + IM 400 mg): 3 | Chills, No. of patients Grade 1 ([1]; panobinostat 20 mg + IM 400 mg): 1 | Chills, No. of patients Grade 2 ([1]; panobinostat 20 mg + IM 400 mg): 1 | Chills, No. of patients Total ([1]; panobinostat 20 mg + IM 400 mg): 2 | Constipation, No. of patients Grade 1 ([1]; panobinostat 20 mg + IM 400 mg): 1 | Constipation, No. of patients Total ([1]; panobinostat 20 mg + IM 400 mg): 1 | Creatinine, No. of patients Grade 1 ([1]; panobinostat 20 mg + IM 400 mg): 2 | Creatinine, No. of patients Grade 2 ([1]; panobinostat 20 mg + IM 400 mg): 2 | Creatinine, No. of patients Grade 3 ([1]; panobinostat 20 mg + IM 400 mg): 1 | Creatinine, No. of patients Total ([1]; panobinostat 20 mg + IM 400 mg): 5 | Diarrhoea, No. of patients Grade 1 ([1]; panobinostat 20 mg + IM 400 mg): 3 | Diarrhoea, No. of patients Grade 2 ([1]; panobinostat 20 mg + IM 400 mg): 1 | Diarrhoea, No. of patients Total ([1]; panobinostat 20 mg + IM 400 mg): 4 | Dizziness, No. of patients Grade 1 ([1]; panobinostat 20 mg + IM 400 mg): 2 | Dizziness, No. of patients Total ([1]; panobinostat 20 mg + IM 400 mg): 2 | Dry mouth, No. of patients Grade 1 ([1]; panobinostat 20 mg + IM 400 mg): 2 | Dry mouth, No. of patients Total ([1]; panobinostat 20 mg + IM 400 mg): 2 | Dry skin, No. of patients Grade 1 ([1]; panobinostat 20 mg + IM 400 mg): 1 | Dry skin, No. of patients Total ([1]; panobinostat 20 mg + IM 400 mg): 1 | Dysgeusia, No. of patients Grade 1 ([1]; panobinostat 20 mg + IM 400 mg): 2 | Dysgeusia, No. of patients Total ([1]; panobinostat 20 mg + IM 400 mg): 2 | Dyspepsia, No. of patients Grade 1 ([1]; panobinostat 20 mg + IM 400 mg): 2 | Dyspepsia, No. of patients Total ([1]; panobinostat 20 mg + IM 400 mg): 2 | Fatigue, No. of patients Grade 1 ([1]; panobinostat 20 mg + IM 400 mg): 3 | Fatigue, No. of patients Grade 2 ([1]; panobinostat 20 mg + IM 400 mg): 3 | Fatigue, No. of patients Total ([1]; panobinostat 20 mg + IM 400 mg): 6 | Headache, No. of patients Grade 1 ([1]; panobinostat 20 mg + IM 400 mg): 1 | Headache, No. of patients Total ([1]; panobinostat 20 mg + IM 400 mg): 1 | Hypothyroidism, No. of patients Grade 1 ([1]; panobinostat 20 mg + IM 400 mg): 3 | Hypothyroidism, No. of patients Total ([1]; panobinostat 20 mg + IM 400 mg): 3 | Lymphopenia, No. of patients Grade 3 ([1]; panobinostat 20 mg + IM 400 mg): 1 | Lymphopenia, No. of patients Total ([1]; panobinostat 20 mg + IM 400 mg): 1 | Muscle spasms, No. of patients Grade 1 ([1]; panobinostat 20 mg + IM 400 mg): 1 | Muscle spasms, No. of patients Grade 2 ([1]; panobinostat 20 mg + IM 400 mg): 1 | Muscle spasms, No. of patients Total ([1]; panobinostat 20 mg + IM 400 mg): 2 | Nausea, No. of patients Grade 1 ([1]; panobinostat 20 mg + IM 400 mg): 1 | Nausea, No. of patients Grade 2 ([1]; panobinostat 20 mg + IM 400 mg): 1 | Nausea, No. of patients Total ([1]; panobinostat 20 mg + IM 400 mg): 2 | Neutropenia, No. of patients Grade 4 ([1]; panobinostat 20 mg + IM 400 mg): 1 | Neutropenia, No. of patients Total ([1]; panobinostat 20 mg + IM 400 mg): 1 | Oedema, No. of patients Grade 1 ([1]; panobinostat 20 mg + IM 400 mg): 2 | Oedema, No. of patients Total ([1]; panobinostat 20 mg + IM 400 mg): 2 | Thrombocytopenia, No. of patients Grade 1 ([1]; panobinostat 20 mg + IM 400 mg): 3 | Thrombocytopenia, No. of patients Grade 2 ([1]; panobinostat 20 mg + IM 400 mg): 1 | Thrombocytopenia, No. of patients Grade 3 ([1]; panobinostat 20 mg + IM 400 mg): 1 | Thrombocytopenia, No. of patients Grade 4 ([1]; panobinostat 20 mg + IM 400 mg): 1 | Thrombocytopenia, No. of patients Total ([1]; panobinostat 20 mg + IM 400 mg): 6 | Vomiting, No. of patients Grade 2 ([1]; panobinostat 20 mg + IM 400 mg): 1 | Vomiting, No. of patients Total ([1]; panobinostat 20 mg + IM 400 mg): 1 | Weight loss, No. of patients Grade 1 ([1]; panobinostat 20 mg + IM 400 mg): 1 | Weight loss, No. of patients Grade 2 ([1]; panobinostat 20 mg + IM 400 mg): 1 | Weight loss, No. of patients Total ([1]; panobinostat 20 mg + IM 400 mg): 2 | Anaemia, No. of patients Grade 2 ([1]; panobinostat 30 mg + IM 400 mg): 2 | Anaemia, No. of patients Total ([1]; panobinostat 30 mg + IM 400 mg): 2 | Chills, No. of patients Total ([1]; panobinostat 30 mg + IM 400 mg): 0 | Constipation, No. of patients Grade 1 ([1]; panobinostat 30 mg + IM 400 mg): 1 | Constipation, No. of patients Total ([1]; panobinostat 30 mg + IM 400 mg): 1 | Creatinine, No. of patients Grade 1 ([1]; panobinostat 30 mg + IM 400 mg): 1 | Creatinine, No. of patients Grade 2 ([1]; panobinostat 30 mg + IM 400 mg): 1 | Creatinine, No. of patients Total ([1]; panobinostat 30 mg + IM 400 mg): 2 | Diarrhoea, No. of patients Grade 1 ([1]; panobinostat 30 mg + IM 400 mg): 1 | Diarrhoea, No. of patients Total ([1]; panobinostat 30 mg + IM 400 mg): 1 | Dizziness, No. of patients Grade 1 ([1]; panobinostat 30 mg + IM 400 mg): 1 | Dizziness, No. of patients Total ([1]; panobinostat 30 mg + IM 400 mg): 1 | Dry mouth, No. of patients Total ([1]; panobinostat 30 mg + IM 400 mg): 0 | Dry skin, No. of patients Grade 1 ([1]; panobinostat 30 mg + IM 400 mg): 1 | Dry skin, No. of patients Total ([1]; panobinostat 30 mg + IM 400 mg): 1 | Dysgeusia, No. of patients Total ([1]; panobinostat 30 mg + IM 400 mg): 0 | Dyspepsia, No. of patients Grade 1 ([1]; panobinostat 30 mg + IM 400 mg): 1 | Dyspepsia, No. of patients Total ([1]; panobinostat 30 mg + IM 400 mg): 1 | Fatigue, No. of patients Grade 2 ([1]; panobinostat 30 mg + IM 400 mg): 2 | Fatigue, No. of patients Total ([1]; panobinostat 30 mg + IM 400 mg): 2 | Headache, No. of patients Grade 2 ([1]; panobinostat 30 mg + IM 400 mg): 1 | Headache, No. of patients Total ([1]; panobinostat 30 mg + IM 400 mg): 1 | Hypothyroidism, No. of patients Total ([1]; panobinostat 30 mg + IM 400 mg): 0 | Lymphopenia, No. of patients Grade 2 ([1]; panobinostat 30 mg + IM 400 mg): 1 | Lymphopenia, No. of patients Total ([1]; panobinostat 30 mg + IM 400 mg): 1 | Muscle spasms, No. of patients Grade 2 ([1]; panobinostat 30 mg + IM 400 mg): 1 | Muscle spasms, No. of patients Total ([1]; panobinostat 30 mg + IM 400 mg): 1 | Nausea, No. of patients Grade 1 ([1]; panobinostat 30 mg + IM 400 mg): 1 | Nausea, No. of patients Grade 2 ([1]; panobinostat 30 mg + IM 400 mg): 2 | Nausea, No. of patients Grade 3 ([1]; panobinostat 30 mg + IM 400 mg): 1 | Nausea, No. of patients Total ([1]; panobinostat 30 mg + IM 400 mg): 4 | Neutropenia, No. of patients Grade 2 ([1]; panobinostat 30 mg + IM 400 mg): 1 | Neutropenia, No. of patients Total ([1]; panobinostat 30 mg + IM 400 mg): 1 | Oedema, No. of patients Grade 1 ([1]; panobinostat 30 mg + IM 400 mg): 1 | Oedema, No. of patients Total ([1]; panobinostat 30 mg + IM 400 mg): 1 | Thrombocytopenia, No. of patients Grade 3 ([1]; panobinostat 30 mg + IM 400 mg): 3 | Thrombocytopenia, No. of patients Grade 4 ([1]; panobinostat 30 mg + IM 400 mg): 2 | Thrombocytopenia, No. of patients Total ([1]; panobinostat 30 mg + IM 400 mg): 5 | Vomiting, No. of patients Grade 1 ([1]; panobinostat 30 mg + IM 400 mg): 2 | Vomiting, No. of patients Grade 2 ([1]; panobinostat 30 mg + IM 400 mg): 1 | Vomiting, No. of patients Total ([1]; panobinostat 30 mg + IM 400 mg): 3 | Weight loss, No. of patients Grade 2 ([1]; panobinostat 30 mg + IM 400 mg): 1 | Weight loss, No. of patients Total ([1]; panobinostat 30 mg + IM 400 mg): 1 | Grade 3 and 4 toxicities clearly attributable to study treatments ([1]; panobinostat + IM 400 mg): thrombocytopenia, neutropenia and nausea | severe hepatotoxicity ([1]; panobinostat + IM 400 mg): did not occur | patients with at least one adverse event [1, 9]: All patients | treatment-related deaths [1, 9]: no treatment-related deaths | time H3 acetylation was maintained in PBMNCs [2]: 24 h | concentration at which H3 acetylation became detectable [3]: ≥ 5 ng/mL | effect of continuous panobinostat treatment for 32 h [4]: reactivation of KIT phosphorylation | persistence of H3 acetylation after removal of panobinostat [4, 10]: 8 h | time to complete disappearance of H3 acetylation after removal [4, 10]: ≤ 24 h | CYP2D6 inhibition [5]: weak inhibitor | Cmax plasma level, panobinostat monotherapy [6]: 10 ng /ml^−1 | Cmax ([7]; D1, with IM 400 mg): 36.1 nM | Cmax ([7]; D8, with IM 400 mg): 47.5 nM | Cmax ([7]; D15, with IM 400 mg): 44.6 nM
